Test results from US9018229B2, “Quinolone compound and pharmaceutical composition” (Otsuka Pharmaceutical Co., Ltd., priority 2008, dated 2015).
Counter-ions that a name gives are not always drawn.

What was measured:
[1] = test system: human neuroblastoma cell lines SH-SY5Y treated with 1-methyl-4-phenylpyridinium (MPP+); assay: Improvement of mitochondrial dysfunction in MPP+-treated SH-SY5Y cells (mitochondrial oxidation reduction activity, Alamar Blue); assay type: cell-based; settings: 1.5 mM MPP+, relative to cells in DMSO alone = 100%, read-out: Fluorescence Intensity (%); for activity at 0.01 µg/mL: test compound 0.01 μg/ml; for activity at 0.03 µg/mL: test compound 0.03 μg/ml; for activity at 0.1 µg/mL: test compound 0.1 μg/ml; for activity at 0.3 µg/mL: test compound 0.3 μg/ml; for activity at 1 µg/mL: test compound 1 μg/ml
Protocol: Evaluation of the Improvement of Mitochondrial Dysfunction Using Human Neuroblastoma Cell Lines SH-SY5Y Treated with 1-methyl-4-phenylpyridinium (MPP^+)
In human neuroblastoma cell lines SH-SY5Y in which mitochondrial activity was injured by MPP^+ treatment (Bollimuntha S. et al., J Biol Chem, 280, 2132-2140 (2005) and Shang T. et al., J Biol Chem, 280, 34644-34653 (2005)), the improvement of mitochondrial dysfunction was evaluated on the basis of measurement values for mitochondrial oxidation reduction activity using Alamar Blue fluorescent dye after the compound addition (Nakai M. et al, Exp Neurol, 179, 103-110 (2003)).
The human neuroblastoma cell lines SH-SY5Y were cultured in Dulbecco's Modified Eagle's Medium containing 10% fetal bovine serum (DMEM containing 50 units/ml penicillin and 50 μg/ml streptomycin as antibiotics) at 37° C. in the presence of 5% carbon dioxide. Cells were scattered on a poly-D-lysine-coated 96-well black plate at a concentration of 3−6×10^4 cells/cm^2 (medium amount: 100 μl/well), and cultured in the above medium for two days. Further, the medium was changed to DMEM containing a 1% N2 supplement (N2-DMEM) or to a medium (100 μl/well) in which 1.5 mM MPP^+ was dissolved. The cells were cultured therein for 39 to 48 hours, and then subjected to a mitochondrial oxidation reduction activity measurement system. A sample compound that had been previously dissolved in dimethyl sulfoxide (DMSO) was diluted with N2-DMEM, and added in a volume of 10 μl/well 24 hours before the activity measurement (final compound concentration: 0.01 to 1 μg/ml).
After removal of the medium by suction, a balanced salt solution containing 10% Alamar Blue (154 mM sodium chloride, 5.6 mM potassium chloride, 2.3 mM calcium chloride, 1.0 mM magnesium chloride, 3.6 mM sodium bicarbonate, 5 mM glucose, 5 mM HEPES, pH 7.2) was added in a volume of 100 μl/well, and reacted in an incubator at 37° C. for 1 hour. The fluorescent intensity was detected using a fluorescence detector (a product of Hamamatsu Photonics K.K., excitation wavelength 530 nm, measurement wavelength 580 nm) to thereby measure the mitochondrial oxidation reduction activity.
The fluorescent intensity of the well of the cells cultured in a medium containing MPP^+ and in each of the sample compounds was relatively evaluated based on the 100% fluorescent intensity of the well of the cells cultured in a medium containing DMSO alone (final concentration: 0.1%).

| Compound | melting point | activity at 0.01 µg/mL [1] | activity at 0.03 µg/mL [1] | activity at 0.1 µg/mL [1] | activity at 0.3 µg/mL [1] | activity at 1 µg/mL [1] |
| --- | --- | --- | --- | --- | --- | --- |
| CCCOc1cc2ccccc2c2c(=O)c(-c3ccc(OC)cc3)c[nH]c12 | 172 to 174 °C | – | – | – | – | – |
| CCCOc1ccc(F)c2c(=O)c(-c3ccc(OC)cc3)cn(CCN3CCOCC3)c12 | 206 to 208 °C | – | – | – | – | – |
| CCCOc1ccc(F)c2c(=O)c(-c3ccc(OC)cc3)cn(CCC(=O)OCCN3CCN(C)CC3)c12.Cl.Cl | 150 to 152 °C | – | – | – | – | – |
| CCCOc1ccc(F)c2c(=O)c(-c3ccc(OC)cc3)cn(CCS(=O)(=O)CCCN3CCN(C)CC3)c12.Cl.Cl | 72 to 74 °C | – | – | – | – | – |
| CCCOc1ccc(F)c2c(=O)c(-c3ccc(OC)cc3)c(CN3CCN(c4ccccn4)CC3)[nH]c12 | 211 to 212 °C | – | – | – | – | – |
| CCCOc1cc2c(c3c(=O)c(-c4ccc(OC)cc4)cn(CCCN4CCOCC4)c13)CCC2 | 135 to 137 °C | – | – | – | – | – |
| CCCOc1cc2ccccc2c2c(=O)c(-c3ccoc3)c[nH]c12 | 252 to 254 °C | – | – | – | – | – |
| CCCOc1ccc(F)c2c(=O)c(-c3ccc(Cl)cc3Cl)cn(COP(=O)([O-])[O-])c12.[Na+].[Na+] | 208 to 210 °C | – | – | – | – | – |
| CCCOc1ccc(F)c2c(=O)c(-c3ccc(OC)cc3)cn(COC(=O)c3ccc(OP(=O)([O-])[O-])cc3)c12.[Na+].[Na+] | 205 to 207 °C | – | – | – | – | – |
| CCCOc1cc2ccccc2c2c(=O)c(-c3ccoc3)cn(C)c12 | 165 to 167 °C | – | – | – | – | – |
| CCCOc1cc2c(c3c(=O)c(-c4ccc(OC)cc4)cn(CC(=O)NCCN4CCOCC4)c13)OCCC2 | 201 to 203 °C | – | – | – | – | – |
| CCCOc1ccc(F)c2c(=O)c(-c3ccc(OC)cc3)cn(CC(=O)NCCN3CCOCC3)c12 | 139 to 141 °C | – | – | – | – | – |
| CCCOc1ccc(F)c2c(=O)c(-c3ccc(OC)cc3)cn(CC(=O)N(C)CCN3CCOCC3)c12 | 218 to 220 °C | – | – | – | – | – |
| CCCOc1ccc(F)c2c(=O)c(-c3ccc(OC)cc3)cn(CC(=O)NC3CCNCC3)c12 | 226 to 228 °C | – | – | – | – | – |
| CCCOc1cc2ccccc2c2c(=O)c(-c3ccc(OC)cc3)c(C)[nH]c12 | 204 to 206 °C | – | – | – | – | – |
| CCCOc1cc2ccccc2c2c(=O)c(-c3ccsc3)cn(C)c12 [Example 7, 4-methyl-5-propoxy-2-thiophen-3-yl-4H-benzo[f]quinolin-1-one] | – | 66% | 71% | 78% | 80% | 75% |
| CCCOc1cc2c(c3c(=O)c(-c4ccsc4)c[nH]c13)CCC2 [Example 12, 5-propoxy-8-thiophen-3-yl-1,2,3,6-tetrahydro-6-aza-cyclopenta[a]naphthalen-9-one] | – | 80% | 74% | 83% | 82% | 68% |
| CCCOc1cc2c(c3c(=O)c(-c4ccc(OC)cc4)cn(COP(=O)(O)O)c13)OCCC2 [Example 36, [3-(4-methoxyphenyl)-4-oxo-10-propoxy-7,8-dihydro-4H,6H-5-oxa-1-aza-phenanthren-1-ylmethyl]monophosphate disodium salt] | – | 69% | 67% | 86% | 90% | 89% |
| CCCOc1cc2c(c3c(=O)c(-c4ccc(OC)cc4)c(C)[nH]c13)OCC2 [Example 48, 8-(4-methoxyphenyl)-7-methyl-5-propoxy-3,6-dihydro-2H-flo[2,3-f]quinolin-9-one] | – | 60% | 81% | 92% | 93% | 80% |
| COc1ccc(-c2c[nH]c3c4c(cc(C)c3c2=O)CCO4)cc1 [Example 57, 7-(4-methoxyphenyl)-5-methyl-2,3-dihydro-9H-flo[3,2-h]quinolin-6-one] | – | 64% | 65% | 68% | 74% | 65% |
| CCCOc1cc2cnccc2c2c(=O)c(-c3ccc(OC)cc3)cn(CC(=O)NCCN3CCOCC3)c12 [Example 69, 2-[9-(4-methoxyphenyl)-10-oxo-6-propoxy-10H-[3,7]phenanthrolin-7-yl]-N-(2-morpholin-4-ylethyl)acetamide] | – | 78% | 64% | 68% | 67% | 65% |
| COc1ccc(-c2c[nH]c3c(OCC(=O)NCCN4CCOCC4)ccc(F)c3c2=O)cc1 [Example 139, 2-[5-fluoro-3-(4-methoxyphenyl)-4-oxo-1,4-dihydro-quinolin-8-yloxy]-N-(2-morpholin-4-ylethyl)acetamide] | – | 53% | 58% | 57% | 60% | 55% |
| CCCOc1ccc(F)c2c(=O)c(-c3ccc(C(=O)N4CCC(N5CCOCC5)CC4)cc3)c[nH]c12 [Example 163, 5-fluoro-3-[4-(4-morpholin-4-yl-piperidine-1-carbonyl)phenyl]-8-propoxy-1H-quinolin-4-one] | – | 61% | 61% | 63% | 60% | 63% |
| CCCOc1ccc(F)c2c(=O)c(-c3ccc(OC)cc3)c(C(=O)NCCN3CCOCC3)[nH]c12 [Example 171, 5-fluoro-3-(4-methoxyphenyl)-4-oxo-8-propoxy-1,4-dihydroquinoline-2-carboxy-[2-(morpholin-4-yl)ethyl]amide] | – | 61% | 61% | 65% | 67% | 68% |
| CCCOc1ccc(F)c2c(=O)c(-c3ccc(OC)cc3)cn(COP(=O)(O)O)c12 [Example 212, [5-fluoro-3-(4-methoxyphenyl)-4-oxo-8-propoxy-4H-quinolin-1-ylmethyl]monophosphate disodium salt] | – | 46% | 62% | 63% | 70% | 72% |
| CCCOc1ccc(F)c2c(=O)c(-c3cnn(C)c3)cn(COP(=O)(O)O)c12 [Example 222, [5-fluoro-3-(1-methyl-1H-pyrazol-4-yl)-4-oxo-8-propoxy-4H-quinolin-1-ylmethyl]monophosphate disodium salt] | – | 59% | 64% | 66% | 62% | 73% |
